Laboratory results taken from patent publication US20110071180A1, “SUB-TYPE SELECTIVE AMIDES OF DIAZABICYCLOALKANES” (Targacept, Inc., priority 2008, published 2011).
Like-named read-outs stand apart in the source and are kept apart here.

Assays:
rat α4β2 nAChR subtype = molecular target: T1, rat α4β2 nAChR subtype (Rattus norvegicus, UniProt P09483+P12390); assay: Radioligand binding, [3H]nicotine, rat cortex membranes; conditions: [3H]nicotine 5 nM
T1 construct: The cerebral cortex was removed and placed in 20 volumes (weight:volume) of ice-cold preparative buffer; from tissue; host or cells: rat cerebral cortex membranes (female Sprague-Dawley)
Description: Preparation of Membranes from Rat Cortex: Rats (Female, Sprague-Dawley), weighing 150-250 g, were maintained on a 12 h light/dark cycle and were allowed free access to water and food supplied by PMI Nutrition International, Inc. Animals were anesthetized with 70% CO2, and then decapitated. Brains were removed and placed on an ice-cold platform. The cerebral cortex was removed and placed in 20 volumes (weight:volume) of ice-cold preparative buffer (137 mM NaCl, 10.7 mM KCl, 5.8 mM KH2PO4, 8 mM Na2HPO4, 20 mM HEPES (free acid), 5 mM iodoacetamide, 1.6 mM EDTA, pH 7.4); PMSF, dissolved in methanol to a final concentration of 100 μM, was added and the suspension was homogenized by Polytron. The homogenate was centrifuged at 18,000×g for 20 min at 4° C. and the resulting pellet was re-suspended in 20 volumes of ice-cold water. After 60 min incubation on ice, a new pellet was collected by centrifugation at 18,000×g for 20 min at 4° C. The final pellet was re-suspended in 10 volumes of buffer and stored at −20° C.
(§1) On the day of the assay, the frozen membranes were thawed and spun at 48,000×g for 20 min. The supernatant was decanted and discarded. The pellet was resuspended in Dulbecco's phosphate buffered saline (PBS, Life Technologies) pH 7.4 and homogenized with the Polytron for 6 seconds. Protein concentrations were determined using a Pierce BCA Protein Assay Kit, with bovine serum albumin as the standard (Pierce Chemical Company, Rockford, Ill.).
(§2) Membrane preparations (approximately 50 μg for human and 200-300 μg protein for rat α4β2) were incubated in PBS (50 μL and 100 μL respectively) in the presence of competitor compound (0.01 nM to 100 μM) and 5 nM [^3H]nicotine for 2-3 hours on ice. Incubation was terminated by rapid filtration on a multi-manifold tissue harvester (Brandel, Gaithersburg, Md.) using GF/B filters presoaked in 0.33% polyethyleneimine (w/v) to reduce non-specific binding. Tissue was rinsed 3 times in PBS, pH 7.4. Scintillation fluid was added to filters containing the washed tissue and allowed to equilibrate. Filters were then counted to determine radioactivity bound to the membranes by liquid scintillation counting (2200CA Tri-Carb LSC, Packard Instruments, 50% efficiency or Wallac Trilux 1450 MicroBeta, 40% efficiency, Perkin Elmer).
(§3) Data were expressed as disintegrations per minute (DPMs). Within each assay, each point had 2-3 replicates. The replicates for each point were averaged and plotted against the log of the drug concentration. IC50, which is the concentration of the compound that produces 50% inhibition of binding, was determined by least squares non-linear regression. Ki values were calculated using the Cheng-Prussof equation (1973): […]

human α4β2 nAChR subtype = molecular target: T2, human α4β2 nAChR subtype (Homo sapiens, UniProt P17787+P43681); assay: Radioligand binding, [3H]nicotine, membranes from SH-EP1/human α4β2 clonal cells; conditions: [3H]nicotine 5 nM, SH-EP1/human α4β2 cell membranes
T2 construct: expressed in transfected cells; host or cells: SH-EP1 clonal cells expressing human α4β2
Description: Preparation of membranes from SH-EP1/human α4β2 clonal cells: Cell pellets from 40 150 mm culture dishes were pooled, and homogenized by Polytron (Kinematica GmbH, Switzerland) in 20 milliliters of ice-cold preparative buffer. The homogenate was centrifuged at 48,000 g for 20 minutes at 4° C. The resulting pellet was re-suspended in 20 mL of ice-cold preparative buffer and stored at −20° C.
as §1, §2, §3

α7 nAChR subtype = molecular target: T3, α7 nAChR subtype (Rattus norvegicus, UniProt Q05941); assay: Radioligand binding, [3H]MLA, rat hippocampus membranes; conditions: for inhibition at 5 µM: read-out: α7 high through-put screening (HTS) result
T3 construct: The hippocampus was removed and placed in 10 volumes (weight:volume) of ice-cold preparative buffer; from tissue; host or cells: rat hippocampus membranes (female Sprague-Dawley)
Description: Rats (female, Sprague-Dawley), weighing 150-250 g, were maintained on a 12 h light/dark cycle and were allowed free access to water and food supplied by PMI Nutrition International, Inc. Animals were anesthetized with 70% CO2, then decapitated. Brains were removed and placed on an ice-cold platform. The hippocampus was removed and placed in 10 volumes (weight:volume) of ice-cold preparative buffer (137 mM NaCl, 10.7 mM KCl, 5.8 mM KH2PO4, 8 mM Na2HPO4, 20 mM HEPES (free acid), 5 mM iodoacetamide, 1.6 mM EDTA, pH 7.4); PMSF, dissolved in methanol to a final concentration of 100 μM, was added and the tissue suspension was homogenized by Polytron. The homogenate was centrifuged at 18,000×g for 20 min at 4° C. and the resulting pellet was re-suspended in 10 volumes of ice-cold water. After 60 min incubation on ice, a new pellet was collected by centrifugation at 18,000×g for 20 min at 4° C. The final pellet was re-suspended in 10 volumes of buffer and stored at −20° C. On the day of the assay, tissue was thawed, centrifuged at 18,000×g for 20 min, and then re-suspended in ice-cold PBS (Dulbecco's Phosphate Buffered Saline, 138 mM NaCl, 2.67 mM KCl, 1.47 mM KH2PO4, 8.1 mM Na2HPO4, 0.9 mM CaCl2, 0.5 mM MgCl2, Invitrogen/Gibco, pH 7.4) to a final concentration of approximately 2 mg protein/mL. Protein was determined by the method of Lowry et al., J. Biol. Chem. 193: 265 (1951), using bovine serum albumin as the standard.
The binding of [^3H]MLA was measured using a modification of the methods of Davies et al., Neuropharmacol. 38: 679 (1999). [^3H]MLA (Specific Activity=25-35 Ci/mmol) was obtained from Tocris. The binding of [^3H]MLA was determined using a 2 h incubation at 21° C. Incubations were conducted in 48-well micro-titre plates and contained about 200 μg of protein per well in a final incubation volume of 300 μL. The incubation buffer was PBS and the final concentration of [^3H]MLA was 5 nM. The binding reaction was terminated by filtration of the protein containing bound ligand onto glass fiber filters (GF/B, Brandel) using a Brandel Tissue Harvester at room temperature. Filters were soaked in de-ionized water containing 0.33% polyethyleneimine to reduce non-specific binding. Each filter was washed with PBS (3×1 mL) at room temperature. Non-specific binding was determined by inclusion of 50 μM non-radioactive MLA in selected wells.
The inhibition of [^3H]MLA binding by test compounds was determined by including seven different concentrations of the test compound in selected wells. Each concentration was replicated in triplicate. IC50 values were estimated as the concentration of compound that inhibited 50 percent of specific [^3H]MLA binding. Inhibition constants (Ki values), reported in nM, were calculated from the IC50 values using the method of Cheng et al., Biochem. Pharmacol. 22: 3099-3108 (1973).

[1] = [3H]MLA 5 nM, rat hippocampus membranes, read-out: α7 Ki

T2 sequence (P43681 29-627 limits assumed): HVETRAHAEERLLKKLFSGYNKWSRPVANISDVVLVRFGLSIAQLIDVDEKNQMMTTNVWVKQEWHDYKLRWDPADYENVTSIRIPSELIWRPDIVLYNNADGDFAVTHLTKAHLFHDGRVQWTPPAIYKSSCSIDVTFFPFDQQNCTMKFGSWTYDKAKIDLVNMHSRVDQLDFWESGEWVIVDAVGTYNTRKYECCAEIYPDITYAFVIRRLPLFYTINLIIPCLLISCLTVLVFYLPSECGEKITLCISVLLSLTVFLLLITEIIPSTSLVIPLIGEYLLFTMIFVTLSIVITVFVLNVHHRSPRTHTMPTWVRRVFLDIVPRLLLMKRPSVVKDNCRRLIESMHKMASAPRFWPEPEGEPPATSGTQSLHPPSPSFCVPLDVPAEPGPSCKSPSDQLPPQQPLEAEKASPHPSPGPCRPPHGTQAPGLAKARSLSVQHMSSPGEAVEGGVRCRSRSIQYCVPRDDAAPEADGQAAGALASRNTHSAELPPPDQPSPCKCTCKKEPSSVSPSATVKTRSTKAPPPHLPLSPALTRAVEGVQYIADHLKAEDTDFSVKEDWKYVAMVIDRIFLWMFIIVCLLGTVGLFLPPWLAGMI
T2 sequence (P17787 26-502): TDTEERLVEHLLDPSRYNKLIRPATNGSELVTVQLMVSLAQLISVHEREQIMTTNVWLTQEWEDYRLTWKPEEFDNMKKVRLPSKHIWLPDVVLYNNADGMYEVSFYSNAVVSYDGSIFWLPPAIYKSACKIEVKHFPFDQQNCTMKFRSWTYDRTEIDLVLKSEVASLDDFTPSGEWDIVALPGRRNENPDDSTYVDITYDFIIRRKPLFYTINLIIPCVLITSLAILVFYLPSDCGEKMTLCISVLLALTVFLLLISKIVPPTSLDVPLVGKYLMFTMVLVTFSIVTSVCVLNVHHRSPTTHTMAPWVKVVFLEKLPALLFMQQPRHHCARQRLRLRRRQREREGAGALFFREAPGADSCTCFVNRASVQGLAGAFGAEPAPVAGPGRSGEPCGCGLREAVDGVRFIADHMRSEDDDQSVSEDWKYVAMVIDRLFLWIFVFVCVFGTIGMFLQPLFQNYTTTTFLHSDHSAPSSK
T3 sequence (Q05941 23-502): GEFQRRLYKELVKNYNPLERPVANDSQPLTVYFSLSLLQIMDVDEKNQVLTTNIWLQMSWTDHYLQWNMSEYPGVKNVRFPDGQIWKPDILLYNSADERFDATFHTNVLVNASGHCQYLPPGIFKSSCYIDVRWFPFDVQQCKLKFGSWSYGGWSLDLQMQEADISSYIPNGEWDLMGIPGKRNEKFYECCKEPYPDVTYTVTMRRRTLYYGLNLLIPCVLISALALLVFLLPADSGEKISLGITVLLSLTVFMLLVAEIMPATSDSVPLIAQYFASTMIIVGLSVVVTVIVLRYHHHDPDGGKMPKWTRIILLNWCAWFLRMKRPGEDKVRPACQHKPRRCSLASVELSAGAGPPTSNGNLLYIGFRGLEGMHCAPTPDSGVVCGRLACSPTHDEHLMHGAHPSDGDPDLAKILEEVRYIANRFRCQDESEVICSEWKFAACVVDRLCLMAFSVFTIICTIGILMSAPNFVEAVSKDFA
T1 sequence (P09483 31-630): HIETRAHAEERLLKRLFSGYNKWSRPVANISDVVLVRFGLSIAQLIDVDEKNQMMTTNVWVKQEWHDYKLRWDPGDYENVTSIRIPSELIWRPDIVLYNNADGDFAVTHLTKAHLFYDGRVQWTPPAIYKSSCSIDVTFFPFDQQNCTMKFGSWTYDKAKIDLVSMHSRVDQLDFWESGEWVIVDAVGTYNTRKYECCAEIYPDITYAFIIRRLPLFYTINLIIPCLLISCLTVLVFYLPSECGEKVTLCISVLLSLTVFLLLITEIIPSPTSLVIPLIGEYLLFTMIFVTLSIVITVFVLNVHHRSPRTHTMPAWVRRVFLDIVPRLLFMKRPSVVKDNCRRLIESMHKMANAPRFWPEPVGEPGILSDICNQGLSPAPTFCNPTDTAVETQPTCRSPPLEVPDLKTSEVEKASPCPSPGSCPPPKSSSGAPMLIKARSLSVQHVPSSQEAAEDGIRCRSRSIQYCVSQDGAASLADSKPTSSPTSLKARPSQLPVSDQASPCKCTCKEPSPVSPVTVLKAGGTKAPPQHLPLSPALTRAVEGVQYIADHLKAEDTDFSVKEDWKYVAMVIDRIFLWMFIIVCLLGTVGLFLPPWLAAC
T1 sequence (P12390 25-500): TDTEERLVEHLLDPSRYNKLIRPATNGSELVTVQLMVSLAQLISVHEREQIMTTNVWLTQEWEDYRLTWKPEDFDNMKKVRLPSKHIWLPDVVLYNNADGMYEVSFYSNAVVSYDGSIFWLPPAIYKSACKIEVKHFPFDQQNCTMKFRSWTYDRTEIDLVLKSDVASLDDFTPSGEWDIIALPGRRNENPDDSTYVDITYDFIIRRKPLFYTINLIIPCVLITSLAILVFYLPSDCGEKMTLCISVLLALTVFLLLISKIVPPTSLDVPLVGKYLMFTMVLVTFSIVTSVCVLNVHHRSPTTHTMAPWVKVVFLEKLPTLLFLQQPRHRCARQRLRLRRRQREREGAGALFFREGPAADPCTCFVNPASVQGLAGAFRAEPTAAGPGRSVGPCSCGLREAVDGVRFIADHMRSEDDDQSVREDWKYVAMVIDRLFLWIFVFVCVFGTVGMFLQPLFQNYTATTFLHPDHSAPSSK

Row | SMILES | Ki (rat α4β2 nAChR subtype) | Ki (human α4β2 nAChR subtype) | inhibition at 5 µM (α7 nAChR subtype) | Ki (α7 nAChR subtype; [1]) | Ki (α7 nAChR subtype; α7 Ki)
1 | CC(=O)N1CC2CNCC2C1 (stereo not drawn) [Example 10-1] | 20.5 nM | 38.5 nM | < 50% | – | –
2 | O=C(C1CC1)N1CC2CNCC2C1 (stereo not drawn) [Example 10-2] | 17.3 nM | 1.8 nM | – | 0.919 µM | –
3 | O=C(C1CCCC1)N1CC2CNCC2C1 (stereo not drawn) [Example 10-3] | 27.7 nM | 29.6 nM | < 50% | – | –
4 | COCC(=O)N1CC2CNCC2C1 (stereo not drawn) [Example 10-4] | 137 nM | 323 nM | – | 12.4 µM | –
5 | C=CCC(=O)N1CC2CNCC2C1 (stereo not drawn) [Example 10-5] | 22.5 nM | 140 nM | < 50% | – | –
6 | O=C(C1CC=CC1)N1CC2CNCC2C1 (stereo not drawn) [Example 10-7] | 28.4 nM | 72.2 nM | < 50% | – | –
7 | O=C(C1=CCCC1)N1CC2CNCC2C1 (stereo not drawn) [Example 10-8] | 116 nM | 296 nM | < 50% | – | –
8 | O=C(C(F)F)N1CC2CNCC2C1 (stereo not drawn) [Example 10-9] | 4.3 nM | 31.7 nM | < 50% | – | –
9 | CC(C)=CC(=O)N1CC2CNCC2C1 (stereo not drawn) [Example 10-10] | 54.2 nM | 79.7 nM | < 50% | – | –
10 | O=C(CF)N1CC2CNCC2C1 (stereo not drawn) [Example 10-11] | 62.2 nM | 45.1 nM | < 50% | – | –
11 | NC(=O)CC(=O)N1CC2CNCC2C1 (stereo not drawn) [Example 10-12] | 1390 nM | 746 nM | < 50% | – | –
12 | COCCC(=O)N1CC2CNCC2C1 (stereo not drawn) [Example 10-13] | 305 nM | 220 nM | < 50% | – | –
13 | CCC(=O)N1CC2CNCC2C1 (stereo not drawn) [Example 10-14] | 16.9 nM | 8.5 nM | < 50% | – | –
14 | CCCC(=O)N1CC2CNCC2C1 (stereo not drawn) [Example 10-15] | 112 nM | 48.8 nM | < 50% | – | –
15 | O=C(N1CC2CNCC2C1)C1(C(F)(F)F)CC1 (stereo not drawn) [Example 10-17] | 419 nM | 303 nM | < 50% | – | –
16 | O=C(C1CC1(F)F)N1CC2CNCC2C1 (stereo not drawn) [Example 10-18] | 6.2 nM | 2.1 nM | < 50% | – | –
17 | CC1(C)CC1C(=O)N1CC2CNCC2C1 (stereo not drawn) [Example 10-19] | 7.7 nM | 16.9 nM | < 50% | – | –
18 | CC1(C(=O)N2CC3CNCC3C2)CC1 (stereo not drawn) [Example 10-20] | 136 nM | 53.9 nM | < 50% | – | –
19 | CC1CC1C(=O)N1CC2CNCC2C1 (stereo not drawn) [Example 10-21] | 4.1 nM | 4.2 nM | < 50% | – | –
20 | O=C(N1CC2CNCC2C1)C1(O)CC1 (stereo not drawn) [Example 10-22] | 445 nM | 343 nM | < 50% | – | –

Row | SMILES | Ki (rat α4β2 nAChR subtype) | Ki (human α4β2 nAChR subtype) | inhibition at 5 µM (α7 nAChR subtype) | Ki (α7 nAChR subtype; [1]) | Ki (α7 nAChR subtype; α7 Ki)
21 | CC1(C)C(C(=O)N2CC3CNCC3C2)C1(C)C (stereo not drawn) [Example 10-23] | 49.1 nM | 16.4 nM | < 50% | – | –
22 | N#CC1(C(=O)N2CC3CNCC3C2)CC1 (stereo not drawn) [Example 10-24] | 572 nM | 274 nM | < 50% | – | –
23 | O=C(C1CCC1)N1CC2CNCC2C1 (stereo not drawn) [Example 10-25] | 12.5 nM | 5.8 nM | < 50% | – | –
24 | O=C(C1CC12CCC2)N1CC2CNCC2C1 (stereo not drawn) [Example 10-26] | 6.3 nM | 4 nM | < 50% | – | –
25 | O=C(CO)N1CC2CNCC2C1 (stereo not drawn) [Example 10-27] | 264 nM | 202 nM | < 50% | – | –
26 | O=C([C@H]1C[C@H]1F)N1CC2CNCC2C1 (stereo partly drawn) [Example 10-28] | 10 nM | 2.9 nM | < 50% | – | –
27 | O=C([C@H]1C[C@@H]1F)N1CC2CNCC2C1 (stereo partly drawn) [Example 10-29] | 21.3 nM | 5.9 nM | < 50% | – | –
28 | O=C(CCF)N1CC2CNCC2C1 (stereo not drawn) [Example 10-30] | 22.4 nM | 14.8 nM | < 50% | – | –
29 | CC(C)C(=O)N1CC2CNCC2C1 (stereo not drawn) [Example 10-31] | 56 nM | 28.6 nM | < 50% | – | –
30 | CC(C)(C)C(=O)N1CC2CNCC2C1 (stereo not drawn) [Example 10-32] | 15.8 nM | 8.1 nM | < 50% | – | –
31 | O=C(C1CC(F)C1)N1CC2CNCC2C1 (stereo not drawn) [Example 10-33] | 7.2 nM | 18 nM | < 50% | – | –
32 | O=C(CC1CC1)N1CC2CNCC2C1 (stereo not drawn) [Example 10-34] | 62.7 nM | 105 nM | < 50% | – | –
33 | CS(=O)(=O)CC(=O)N1CC2CNCC2C1 (stereo not drawn) [Example 10-35] | 238 nM | 345 nM | < 50% | – | –
34 | O=C([C@H]1C[C@@H]1F)N1CC2CNCC2C1 (stereo partly drawn) [Example 10-36] | 34.3 nM | 17.2 nM | – | – | 25.3 µM
35 | O=C([C@@H]1C[C@H]1F)N1CC2CNCC2C1 (stereo partly drawn) [Example 10-37] | 12.2 nM | 4.9 nM | < 50% | – | –
36 | O=C([C@H]1C[C@H]1F)N1CC2CNCC2C1 (stereo partly drawn) [Example 10-38] | 9.7 nM | 30 nM | < 50% | – | –
37 | O=C([C@@H]1C[C@@H]1F)N1CC2CNCC2C1 (stereo partly drawn) [Example 10-39] | 6.6 nM | 3.8 nM | < 50% | – | –
38 | CC(F)(F)C(=O)N1CC2CNCC2C1 (stereo not drawn) [Example 10-40] | 8.6 nM | 9.8 nM | < 50% | – | –
39 | CC(C)(F)C(=O)N1CC2CNCC2C1 (stereo not drawn) [Example 10-41] | 12 nM | 26.9 nM | < 50% | – | –
